According to publication PMC10996807 (Research Square, 2024):
In brackets after ≈: the same amount, converted by molar mass.

Columns and labels:
[1] = test system: B. anthracis; assay: microbe, parasite or virus in culture; format: cell-based; details: for MIC50 / MIC90: Bacillus anthracis
[2] = test system: B. anthracis Ames NR3838 spores; parameters: species or system New Zealand White rabbits; details: rabbit, in vivo
[3] = test system: B. anthracis Sterne; format: cell-based, Bacillus anthracis

| Compound | MIC Range [1] [µg/mL] | MIC50 [1] [µg/mL] | MIC90 [1] [µg/mL] | histopathology lesions ([2]; 12.5 mg/kg) | efficacious dose in rabbits ([2]; iv) [mg/kg] | effect of washing on preformed supramolecular structures [3] | formation of supramolecular structures [3] |
| --- | --- | --- | --- | --- | --- | --- | --- |
| O=C(O)c1cn(C2CC2)c2cc(N3CCNCC3)c(F)cc2c1=O [Ciprofloxacin] | 0.06 to 4 | 0.12 (≈ 0.362 µM) | 0.5 (≈ 1.51 µM) |  |  |  |  |
| C[C@H]1c2cccc(O)c2C(=O)C2=C(O)[C@]3(O)C(=O)C(C(N)=O)=C(O)[C@@H](N(C)C)[C@@H]3[C@@H](O)[C@@H]21 [Doxycycline] | ≤0.008 to 0.12 | 0.03 (≈ 0.0675 µM) | 0.06 (≈ 0.135 µM) |  |  |  |  |
| C[C@@H](O)[C@H]1C(=O)N2C(C(=O)O)=C(SCCN=CN)C[C@H]12 [Imipenem] | 0.03 to 1 | 0.06 (≈ 0.2 µM) | 0.12 (≈ 0.401 µM) |  |  |  |  |
| C[C@H]1COc2c(N3CCN(C)CC3)c(F)cc3c(=O)c(C(=O)O)cn1c23 [Levofloxacin] | 0.06 to 1 | 0.12 (≈ 0.332 µM) | 0.5 (≈ 1.38 µM) | mitigated lesions | 12.5 |  |  |
| Lys(Bodipy FL)10-teixobactin |  |  |  |  |  | no apparent effect | apparent |
